“Also recorded” adds a separate entry of the source. Square brackets hold non-standard residues; d marks the D form. Ends that are not written are not given here. pS = N[C@@H](COP(=O)(O)O)C(=O)O
Columns and labels:
GRIP PDZ4-6 = target: T1, GRIP PDZ4-6 (Rattus norvegicus, UniProt P97879); assay: Competitive binding of 35S-EphB2 to His-GRIP-PDZ4-6; conditions: for displacement of labeled EphB2 from GRIP PDZ4-6: concentrations of up to 10 μM peptide
T1 construct: corresponding to GRIP1 (amino acid 448-792); made in house; host or cells: E. coli BL21
T1 sequence (P97879 448-792): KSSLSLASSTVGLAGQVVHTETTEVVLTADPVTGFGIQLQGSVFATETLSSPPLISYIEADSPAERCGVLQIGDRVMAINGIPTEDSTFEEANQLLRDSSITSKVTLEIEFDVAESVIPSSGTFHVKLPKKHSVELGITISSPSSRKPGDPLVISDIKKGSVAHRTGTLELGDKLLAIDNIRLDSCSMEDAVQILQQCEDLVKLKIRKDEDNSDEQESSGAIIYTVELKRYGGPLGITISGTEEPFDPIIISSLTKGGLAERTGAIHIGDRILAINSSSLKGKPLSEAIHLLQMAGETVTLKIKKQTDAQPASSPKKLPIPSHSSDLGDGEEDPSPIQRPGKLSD
Description: A competitive binding assay was prepared to determine if the LTP inhibitory effects of the GluR2ct peptide were mediated through disruption of binding between Eph receptors and PDZ domain 6 of GRIP (Torres et al., Neuron 21, 1453-63. (1998)) as opposed to disruption of binding between the GluR2 subunit and the GluR2-binding PDZ 4 and 5 domains of GRIP (Dong et al., Nature 386, 279-84. (1997)). For this purpose, a binding assay was established between GRIP PDZ domain fragments (His-GRIP-PDZ4-6) and an EphB2 carboxy terminal fusion protein labeled with ^35S-methionine (^35S-EphB2).
Briefly, the carboxy terminal region of EphB2 corresponding to mouse EphB2 receptor (amino acid 930-993) was generated by PCR from mouse brain library and subcloned into pGEX2TK (Pharmacia). The GRIP(PDZ4-6) construct, corresponding to GRIP1 (amino acid 448-792) was obtained by PCR from an adult rat hippocampal library and subcloned into pRSET vector. E coli (strain BL21) were transformed with His-GRIP(PDZ4-6) and GST-EphB2 and protein production induced with IPTG. GST-EphB2 protein was purified on glutathionine beads and ^35S-EphB2 cleaved from GST with thrombin (1 U/μg). GRIP(PDZ4-6) protein was purified on Ni-NTA agarose, and eluted with imadazole. ^35S-EphB2 (50 nM) was incubated with (15 μg) of His-GRIP(PDZ4-6) protein in PBS buffer with protease inhibitors for 2 hrs at 22° C. in the absence or presence of peptides. ^35S-EphB2 binding to His-GRIP(PDZ4-6) was determined after a 45 min incubation with Ni-NTA agarose and vacuum filtration onto Whatman GFB filter circles (pretreated with 3% BSA). Filters were washed with ice-cold PBS buffer, allowed to equilibrate overnight in ECOLUME scintillation cocktail (ICN pharmaceuticals, Irvine Calif.), and specific counts measured in a scintillation counter. Non-specific binding was defined as the residual binding measured in the absence of His-GRIP(PDZ4-6).

[1] = tested on: mossy fiber synapses of hippocampal CA3 pyramidal neurons; assay: Mossy fiber LTP, whole-cell patch clamp in hippocampal slices; format: cell-based, mice; conditions: for LTP (potentiation of the EPSC after tetanic stimulation): peptide 50 μM in patch electrode (postsynaptic), 25 to 30 minutes after tetanic stimulation; for LTP PPR (paired pulse ratio after LTP induction) / control PPR (paired pulse ratio before LTP induction): 40 ms interval
Description: The role of the GluR2 subunit in LTP at mossy fiber terminals was evaluated in whole cell patch clamp experiments using hippocampal CA3 pyramidal neurons. Briefly, transverse hippocampal slices (350 μm) were made from P12-18 mice (strain 129SvEv) as previously described (Contractor et al., Neuron 29, 209-16. (2001)). Slices were transferred to a recording chamber, and whole-cell patch clamp recordings made from visually identified pyramidal cells in the CA3 region of the hippocampus. The recording electrode (i.e., patch electrode) is filled with an “internal” solution described below. A seal between the glass of the electrode and the membrane of the cell is made. The seal is then “broken through” by pushing the electrode through the membrane to gain low resistance access to the cell interior and enable voltage clamping of the cell membrane. This also allows dialysis of the cell with test reagents such as peptides and antibodies. A stimulating electrode is attached to a current source and allows current to stimulate action potentials while a reference electrode is placed in the recording bath. The composition of the internal solution was: 95 mM CsF, 25 mM CsCl, 10 mM Cs-HEPES, 10 mM Cs-EGTA, 2 mM NaCl, 2 mM Mg-ATP, 10 mM QX-314, 5 mM TEA-Cl, 5 mM 4-AP, pH adjusted to 7.3 with CsOH.
Peptides were added directly to the internal solution on the day of the experiment from frozen stocks in protease inhibitors made up in phosphate buffered saline (PBS). To avoid leakage of peptides or antibodies into the extracellular space, pipette tips were filled with normal internal solution and then the pipette was backfilled with peptide/antibody containing internal fluid. The final concentration of peptides was 50 μM in all experiments. The final concentration of protease inhibitors were: bestatin 2 μg/ml, leupeptin 25 ng/ml, pepstatin 35 ng/ml, aprotinin 100 ng/ml.
In control experiments where peptides were not included, internal solutions were made up in exactly the same way with protease inhibitors in PBS but lacking any added peptide. Antibodies were made up in PBS stock and added directly to the internal solution at a final concentration of 20 μg/ml. The pH and osmolarity of all internal solutions were checked before use. Series resistances (Rs) were generally <10M and were continuously monitored throughout the duration of the experiment. […] Experiments using mutant mice were performed with heterozygous breedings blind to the genotype of the animal.
Mossy fiber EPSCs were evoked with a monopolar glass electrode positioned in the stratum lucidum. EPSCs were evaluated using a 40 ms interval between recordings. All recordings were made in the continuous presence of bicuculline (10 μM), picrotoxin (50 μM) and the NMDA receptor antagonist D-AP5 [D(-)-2-Amino-5-phosphonopentanoic acid; 50 μM]. The group II mGluR agonist, LCCG-1 (10 μM), which selectively depresses mossy fiber transmission, was applied at the end of each experiment. LTP was induced by tetanic stimulation comprising three 1 s stimulations (100 Hz) with a 10 s interval. Data are presented as mean±SEM. Parameters were compared using the Student's unpaired t-test where not specified, and the K-S test, p<0.05 was considered significant.
Cumulative probability is determined by ranking the EPSC data set from the highest to the lowest value from 20 to 30 minutes post tetanization. Each point is graphed with its corresponding percentile. […] The lowest LTP value was about 40% signified by the lowest point on the 1 st graph (open circles) and the largest LTP was about 160%.

[2] = tested on: mossy fiber synapses of hippocampal CA3 pyramidal neurons; assay: Forskolin-mediated potentiation of mossy fiber EPSCs; format: cell-based, mice; conditions: EphB2 peptide in recording electrode
EphA8 = target: T2, EphA8 (Mus musculus, UniProt O09127); conditions: read-out: Kd for binding to EphA8; cited from earlier work
T2 sequence (O09127 27-1004): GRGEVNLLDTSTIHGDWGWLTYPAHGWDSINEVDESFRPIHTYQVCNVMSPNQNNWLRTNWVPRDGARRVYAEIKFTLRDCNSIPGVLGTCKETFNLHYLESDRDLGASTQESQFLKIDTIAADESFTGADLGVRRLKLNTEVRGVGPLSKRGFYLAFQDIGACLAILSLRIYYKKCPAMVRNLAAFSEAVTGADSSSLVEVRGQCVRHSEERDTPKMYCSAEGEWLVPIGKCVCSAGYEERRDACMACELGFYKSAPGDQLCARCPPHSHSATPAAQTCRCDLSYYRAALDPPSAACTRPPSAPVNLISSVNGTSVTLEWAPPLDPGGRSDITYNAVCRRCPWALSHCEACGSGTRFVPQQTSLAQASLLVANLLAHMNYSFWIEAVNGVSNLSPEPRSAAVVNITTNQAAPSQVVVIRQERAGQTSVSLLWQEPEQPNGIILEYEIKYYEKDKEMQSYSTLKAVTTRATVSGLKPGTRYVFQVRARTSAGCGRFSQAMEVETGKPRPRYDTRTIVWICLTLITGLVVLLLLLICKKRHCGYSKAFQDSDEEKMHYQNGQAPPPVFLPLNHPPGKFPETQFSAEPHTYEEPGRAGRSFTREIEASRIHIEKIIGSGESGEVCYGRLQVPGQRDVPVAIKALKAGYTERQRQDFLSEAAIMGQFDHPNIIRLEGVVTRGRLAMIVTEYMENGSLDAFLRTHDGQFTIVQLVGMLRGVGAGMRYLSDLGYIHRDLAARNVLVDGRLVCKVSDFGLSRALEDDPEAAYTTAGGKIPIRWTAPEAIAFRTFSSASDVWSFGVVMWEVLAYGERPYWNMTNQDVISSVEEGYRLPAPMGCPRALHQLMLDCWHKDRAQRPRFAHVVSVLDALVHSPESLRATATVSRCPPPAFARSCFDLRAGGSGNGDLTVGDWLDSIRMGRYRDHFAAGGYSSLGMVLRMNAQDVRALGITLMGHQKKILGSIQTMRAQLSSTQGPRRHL

EphA3 = conditions: read-out: Kd for binding to EphA3; cited from earlier work
[3] = target: postsynaptic EphB receptors; assay: cell-based or functional assay
[4] = peptide 50 μM in patch electrode
[5] = peptide in patch electrode (postsynaptic)
[6] = peptide in patch electrode, 20 to 30 minutes post tetanization

## NVIYVKSEIG [R2ctSC, reference compound]
GRIP PDZ4-6; listed as GluR2ctSC
  displacement of labeled EphB2 from GRIP PDZ4-6: unable to displace binding; also recorded: do not inhibit binding of EphB2 to GRIP
[1]
  LTP (potentiation of the EPSC after tetanic stimulation): 200±11%
[1]; [4]
  LTP PPR (paired pulse ratio after LTP induction): 2.4±0.10
  control PPR (paired pulse ratio before LTP induction): 3.1±0.19
[1]; peptide in patch electrode
  effect on basal synaptic transmission / basal EPSC amplitudes: stable
[1]; [5]
  effect on tetanus induced LTP: little effect on induction of LTP
[1]; peptide in patch electrode (postsynaptic), listed as GluR2ctSC
  effect on tetanus induced LTP: do not inhibit LTP

## QMNQIQSVEV [EphB2 peptide, Gln-Met-Asn-Gln-Ile-Gln-Ser-Val-Glu-Val]
[2]
  forskolin-mediated potentiation with peptide in the recording electrode: 209±20%
GRIP PDZ4-6; 35S-EphB2 50 nM, fitted to the Hill equation, read-out: Ki, displacement of 35S-EphB2 binding to His-GRIP-PDZ 4-6
  Ki: 43 nM
[1]
  LTP (potentiation of the EPSC after tetanic stimulation): 125±15%
[1]; [4]
  LTP PPR (paired pulse ratio after LTP induction): 2.5±0.27
  control PPR (paired pulse ratio before LTP induction): 2.5±0.22
[1]; peptide 50 μM in patch electrode, immediately following tetanic stimulation
  PTP (post-tetanic potentiation): 500±76%
[1]; [5]
  effect on PTP: significantly impaired; also recorded: significantly depressed
  effect on tetanus induced LTP: significantly impaired; also recorded: inhibit mossy fiber hippocampal CA3 neuronal LTP; also recorded: significantly depressed
[1]; [6]
  largest LTP of single recordings (cumulative probability, FIG. 5): about 160%
  lowest LTP value of single recordings (cumulative probability, FIG. 5): about 40%

## R2ctPO4: phosphorylated GluR2/3 peptide; same as SEQ ID NO: 1 except the serine is phosphorylated (NVYGIE[pS]VKI) [reference compound]
GRIP PDZ4-6; listed as GluR2ctPO4
  displacement of labeled EphB2 from GRIP PDZ4-6: unable to displace binding; also recorded: do not inhibit binding of EphB2 to GRIP
[1]
  LTP (potentiation of the EPSC after tetanic stimulation): 210±19%
[1]; [4]
  LTP PPR (paired pulse ratio after LTP induction): 2.5±0.16
  control PPR (paired pulse ratio before LTP induction): 3.0±0.18
[1]; [5]
  effect on tetanus induced LTP: little effect on induction of LTP
[1]; peptide in patch electrode (postsynaptic), listed as GluR2ctPO4
  effect on tetanus induced LTP: do not inhibit LTP

B1: ephrin-A3: a 238 amino acid polypeptide; ephrin ligand (protein, UniProt P52797 1-238, looked up)
chain: MAAAPLLLLLLLVPVPLLPLLAQGPGGALGNRHAVYWNSSNQHLRREGYTVQVNVNDYLDIYCPHYNSSGVGPGAGPGPGGGAEQYVLYMVSRNGYRTCNASQGFKRWECNRPHAPHSPIKFSEKFQRYSAFSLGYEFHAGHEYYYISTPTHNLHWKCLRMKVFVCCASTSHSGEKPVPTLPQFTMGPNVKINVLEDFEGENPQVPKLEKSISGTSPKREHLPLAVGIAFFLMTFLAS
modifications: full-length
notes: a 238 amino acid polypeptide; ephrin ligand
EphA8
  Kd: 1.1 nM
EphA3
  Kd: 5 nM

B2: ephrin-A5: a 28 kDa, 228 amino acid glycoprotein; ephrin ligand (protein, UniProt P52803 1-228, looked up)
chain: MLHVEMLTLVFLVLWMCVFSQDPGSKAVADRYAVYWNSSNPRFQRGDYHIDVCINDYLDVFCPHYEDSVPEDKTERYVLYMVNFDGYSACDHTSKGFKRWECNRPHSPNGPLKFSEKFQLFTPFSLGFEFRPGREYFYISSAIPDNGRRSCLKLKVFVRPTNSCMKTIGVHDRVFDVNDKVENSLEPADDTVHESAEPSRGENAAQTPRIPSRLLAILLFLLAMLLTL
modifications: full-length
notes: a 28 kDa, 228 amino acid glycoprotein; ephrin ligand
EphA8
  Kd: 0.5 nM

B3: ephrin-B1-Fc fusion protein (Fc fusion, mouse, not shown: a dimerising Fc or GST)
chain (part 1 of 2): ATPLAKNLEPVSWSSLNPKFLSGKGLVIYPKIGDKLDIICPRAEAGRPYEYYKLYLVRPEQAAACSTVLDPNVLVTCNKPHQEIRFTIKFQEFSPNYMGLEFKKYHDYYITSTSNGSLEGLENREGGVCRTRTMKIVMKVGQDPNAVTPEQLTTSRPSKESDNTVKTATQAPGRGSQGDSDGKHETVNQEEKSGPGAGGGGSGDSIEGRMD
chain (part 2 of 2): HHHHH
[3]
  LTP after tetanus in the presence of ephrinB1-Fc (5 µg/ml): 139%
  forskolin potentiation of mossy fiber EPSCs after pre-application of ephrin-B1-Fc: 219%
  post-tetanic potentiation: 430%

From patent US20040241754A1, “Modulating neuronal plasticity” (The Salk Institute for Biological Studies, priority 2003, published 2004)
